Source: patent US4418077A, “Fluorinated amino-butyric acid and diaminobutane derivatives” (Merrell Toraude et Compagnie, priority 1980, dated 1983)

Legend:
Type in all cases: in vivo
mice = assay: Toxicity in mice (weight loss and deaths), observed up to 12 days; conditions: i.p.
Description: (§1) A group of 10 male albino CD1 mice from Charles Riner, France, is given an i.p. injection of the test compound in aqueous solution daily for four consecutive days. Half of the animals are killed by decapitation 24 hours after the last dose fo the test compound. The other half of the animals are observed for up to 12 days for toxicity (as indicated by weight loss and deaths). Control animals receive an injection of the vehicle only.

[1] = as above; conditions: mouse, in vivo, ip, daily dose 1 mg/kg for 4 days, observed up to 12 days, read-out: Mortality (After Treatment)
Description: as §1

GABA-T = GABA-T activity in brain of mice after four daily i.p. doses; conditions: brain 24 hours after last dose
Description: as §1
(§2) The brains are removed from the dead mice and are divided into two portions by sagittal section. One half is used for the measurement of GABA-T activity while the other is used for measuring GABA content. The GABA-T activity is measured using known methods as described by M. Jung et al., J. Neurochem., 28, 717 (1977) and 29, 797 (1977), GABA content is measured by perchloric acid or trichloroacetic acid extracts using an amino acid analyzer equiped with a fluoresence detector.

brain GABA = assay: GABA content of brain of mice after four daily i.p. doses; conditions: brain 24 hours after last dose
Description: as §1, §2

[2] = daily dose 2.5 mg/kg for 4 days

Q: Which results are given for `NC(CF)C(F)C(=O)O` (stereo not drawn) [2,4-difluoro-3-amino-butyric acid, 2,4-DIFLUORO-3-AMINO-BUTYRIC ACID]?
A: Weight Loss % (mice; daily dose 1 mg/kg for 4 days): 0%; Weight Loss % (mice; [2]): -5%; Mortality (After Treatment) (mice; daily dose 2.5 mg/kg for 4 days, deaths by day 6): 2/5; Weight Loss % (mice; daily dose 5 mg/kg for 4 days): -25%; Mortality (After Treatment) (mice; daily dose 5 mg/kg for 4 days, deaths by day 7): 5/5; mortality at 288 h [1]: 0%; GABA-T Inhibition (%) (GABA-T; daily dose 1 mg/kg for 4 days): 50%; GABA-T Inhibition (%) (GABA-T; [2]): 83%; GABA-T Inhibition (%) (GABA-T; daily dose 5 mg/kg for 4 days): 87%; GABA Elevation (%) (brain GABA; daily dose 1 mg/kg for 4 days): 150%; GABA Elevation (%) (brain GABA; [2]): 225%; GABA Elevation (%) (brain GABA; daily dose 5 mg/kg for 4 days): 250%
